Reference: ChEMBL document CHEMBL1126431, “The effect of N-acyl substituents on the stability of monocyclic -lactam inhibitors of human leukocyte elastase” (Bioorg Med Chem Lett, 1992)

Experiments:
[1] = Half-life period was determined, by hydrolyzing under mild conditions (pH = 8.0, 25 degrees Celsius); format: ADME
[2] = molecular target: T1, Neutrophil elastase (Homo sapiens) (UniProt P08246); assay: Human leukocyte elastase (HLE) inhibitory activity is reported as kinetic constant (kobs/[I] - time dependent inhibition)
T1 sequence (whole entry): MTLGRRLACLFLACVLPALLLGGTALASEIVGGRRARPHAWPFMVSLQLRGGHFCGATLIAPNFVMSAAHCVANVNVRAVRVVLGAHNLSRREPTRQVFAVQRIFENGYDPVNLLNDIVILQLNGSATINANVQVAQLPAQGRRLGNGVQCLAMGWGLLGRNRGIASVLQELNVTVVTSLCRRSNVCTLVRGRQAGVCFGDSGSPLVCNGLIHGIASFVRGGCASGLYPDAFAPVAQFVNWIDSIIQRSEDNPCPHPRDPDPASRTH

[3] = molecular target: T2, Neutrophil elastase (Homo sapiens, UniProt P08246); assay: Concentration required for inhibition of human leukocyte elastase (HLE)
T2 sequence (P08246 whole entry): T1 sequence (whole entry)

SMILES	half-life [1] [min]	k obs / 1 [2] [M⁻¹ s⁻¹]	Ki [3] [µM]
CC[C@@H]1C(=O)N(C(C)=O)[C@H]1Oc1ccc(C(=O)O)cc1	~540	6680	–
CC[C@@H]1C(=O)N(C(C)=O)[C@H]1OC(C)=O (racemic)	~120	–	–
CCOC(=O)N1C(=O)[C@@H](CC)[C@@H]1Oc1ccc(C(=O)O)cc1	–	6350	–
CC[C@@H]1C(=O)N[C@H]1Oc1ccc(C(=O)O)cc1	~1920	–	290
CC[C@@H]1C(=O)N(C(=O)NC)[C@H]1Oc1ccc(C(=O)O)cc1	–	–	16.5
CC[C@@H]1C(=O)N(C(=O)NCc2ccccc2)[C@H]1Oc1ccc(C(=O)O)cc1	–	2480	–
